The text below walks through data of patent publication US20250230138A1, “COMPOUNDS HAVING A T-STRUCTURE FORMED BY AT LEAST FOUR CYCLES FOR USE IN THE TREATMENT OF CANCER AND OTHER INDICATIONS” (TheRas, Inc., priority 2022, published 2025).

One test deals with pAKT in BT474 cells. The test is described as follows: Cell-based pAKT HTRF assay in BT474 cells. The following applies: BT474 cells, 4 hr incubation, read-out: pAKT inhibition IC50 in BT474 cells. An outline of the steps: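 BT474 cells in DMEM/10% FBS were treated the day after seeding with a 9-point, 3-fold compound series from 3 μM (0.25% DMSO) for 4 hr. Lysates were mixed with d2 and Eu cryptate anti-pAKT antibodies and incubated 4-24 h at room temperature. HTRF was read with excitation at 320 nm and emission at 615 nm.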
Background: In TR-FRET formats the signal depends on donor and acceptor labels being close together.

In test [1] the target is Cys242 in human PIK3CA (157-299) (Homo sapiens (Human), UniProt P42336). Briefly: Covalent modification assay using MALDI-TOF MS. The test is classed as biochemical. The following applies: 4 h reaction time point. An outline of the steps: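 PIK3CA (157-299) at 3.33 μM or 1 μM in 20 mM HEPES, 150 mM NaCl, 2 mM MgCl2, pH 7.3 was incubated with compound (from 10 mM DMSO stocks) in the dark at room temperature for 15 min, 30 min, 2 h or 4 h. Linear-mode MALDI-TOF peak heights gave percent modification.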
Chain of Cys242 in human PIK3CA (157-299) (P42336 157-299): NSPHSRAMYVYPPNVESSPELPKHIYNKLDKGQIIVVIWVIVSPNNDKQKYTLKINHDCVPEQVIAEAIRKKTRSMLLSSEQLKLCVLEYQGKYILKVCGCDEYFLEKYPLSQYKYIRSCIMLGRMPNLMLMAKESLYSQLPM

The mark [2] stands for this setting: 1 μM protein target, 1:5 protein to compound ratio (compounds 853-1279).
The mark [3] stands for this setting: 3.33 μM protein target, 1:7.5 protein to compound ratio (compounds 1-852).

Like-named read-outs stand apart in the source and are kept apart here. Where only a bound is given, the exact number is not on record here.

By IC50 is commonly meant the concentration that inhibits the measured activity by half. For `C=CC(=O)N1CCn2nc(-c3nc(-c4ccc(C(=O)NC5CN(C)C5)cc4)c4ccsc4c3-c3c(F)cc(F)cc3OCCOC)cc2C1C` (stereo not shown) [Compound 1095], the IC50 with pAKT in BT474 cells (Compounds 1000-1279) was below 100 nM. Besides, the “% of modification” value in test [1] (setting [2]) is recorded as “A (percent of modification of PIK3CA protein ≥75%)”.
With `C=CC(=O)N1CCc2ncc(-c3nc(-c4cnc(C)o4)c4ccsc4c3-c3c(F)cc(F)cc3OC(C)C)cc2C1` [Compound 455], the IC50 with pAKT in BT474 cells (Compounds 10-999) was below 100 nM. The “% of modification” value in test [1] (setting [3]) is listed as “A (percent of modification of PIK3CA protein ≥75%)”.
For `C=CC(=O)N1CCn2nc(-c3nc(-c4ccc5c(c4)CCN(C)C5)c4ccsc4c3-c3c(F)cc(F)cc3OC(C)C)cc2[C@H]1C` [Compound 507], the IC50 with pAKT in BT474 cells (Compounds 10-999) was below 100 nM. The “% of modification” value in test [1] (setting [3]) is given as “A (percent of modification of PIK3CA protein ≥75%)”.
The like results for `C=CC(=O)N1Cc2cc(-c3nc(-c4ccc5cn(C)nc5c4)c4ccsc4c3-c3c(F)cc(F)cc3OCCO)nn2C(C)C1` (stereo not shown) [Compound 783] were, in that order, below 100 nM and “A (percent of modification of PIK3CA protein ≥75%)”.
With `C=CC(=O)N1CCn2nc(-c3nc(-c4ccc5c(c4)CN(C)C(=O)C54CC4)c4ccsc4c3-c3c(F)cc(F)cc3OCCO)cc2[C@H]1C` [Compound 1133], the half-maximal inhibitory concentration (IC50) in the test with pAKT in BT474 cells (Compounds 1000-1279) was below 100 nM. Besides, in test [1] (setting [2]), the “% of modification” value is given as “A (percent of modification of PIK3CA protein ≥75%)”.
Consider `C=CC(=O)N1CCn2nc(-c3nc(-c4ccc5c(c4)CCNC5=O)c4ccsc4c3-c3c(F)cc(F)cc3OC)cc2C1C` (stereo not shown) [Compound 1120], for which, in the test on pAKT in BT474 cells (Compounds 1000-1279), the IC50 is below 100 nM. Also, in test [1] (setting [2]), the “% of modification” value is recorded as “A (percent of modification of PIK3CA protein ≥75%)”.
The like results for `C=CC(=O)N1CCn2nc(-c3nc(-c4ccc(CC(=O)N5CC(F)(F)C5)cc4)c4ccsc4c3-c3c(F)cc(F)cc3OCCOC)cc2C1C` (stereo not shown) [Compound 1102] were, in that order, below 100 nM and “A (percent of modification of PIK3CA protein ≥75%)”.
On to `C=CC(=O)N1CCc2nc(-c3nc(-c4ccc5c(c4)CCNC5)c4ccoc4c3-c3ccc(F)cc3OCCOC)sc2C1` [Compound 417], for which the half-inhibitory concentration (IC50) in the test with pAKT in BT474 cells (Compounds 10-999) was below 100 nM. Moreover, the “% of modification” value in test [1] (setting [3]) is “A (percent of modification of PIK3CA protein ≥75%)”.
In the case of `C=CC(=O)N1CCc2ncc(-c3nc(-c4ccn(C)c(=O)c4)c4ccsc4c3-c3c(F)cc(F)cc3OCCOC)cc2C1` [Compound 374], the half-inhibitory concentration (IC50) with pAKT in BT474 cells (Compounds 10-999) was below 100 nM. Besides, the “% of modification” value in test [1] (setting [3]) was “A (percent of modification of PIK3CA protein ≥75%)”.
On to `C=CC(=O)N1CC(n2cc(-c3nc(-c4cnn(C)c4)c4ccsc4c3-c3ccc(F)cc3OC)cn2)C1` [Compound 76], for which the IC50 with pAKT in BT474 cells (Compounds 10-999) is below 100 nM. Besides, the “% of modification” value in test [1] (setting [3]) is on record as “A (percent of modification of PIK3CA protein ≥75%)”.
On to `C=CC(=O)N1CCc2cc(-c3nc(-c4ccc5c(c4)CNC(=O)C5)c4ccsc4c3-c3c(F)cc(F)cc3OCCOC)nn2CC1` [Compound 1024], for which, in the test with pAKT in BT474 cells (Compounds 1000-1279), the half-inhibitory concentration (IC50) was below 100 nM. For the same compound, the “% of modification” value in test [1] (setting [2]) is recorded as “A (percent of modification of PIK3CA protein ≥75%)”.
In the case of `C=CC(=O)N1Cc2cc(-c3nc(-c4cnn(C)c4)c4ccsc4c3-c3ccc(F)cc3OC(C)C)nn2[C@H](C)C1` [Compound 357, 1-((7R)-2-(7-(4-fluoro-2-isopropoxyphenyl)-4-(1-methyl-1H-pyrazol-4-yl)thieno[3,2-c]pyridin-6-yl)-7-methyl-6,7-dihydropyrazolo[1,5-a]pyrazin-5(4H)-yl)prop-2-en-1-one], in the test with pAKT in BT474 cells (Homo sapiens, BT-474, Compounds 10-999), the concentration for half-maximal inhibition (IC50) was below 100 nM. In test [1] (setting [3]), the “% of modification” value is “A (percent of modification of PIK3CA protein ≥75%)”.
As for `C=CC(=O)N1CCn2nc(-c3nc(-c4ccc5c(c4)CCN(C)C5)c4ccsc4c3-c3c(F)cc(F)cc3OCCOC)cc2[C@@H]1C` [Compound 544], the half-maximal inhibitory concentration (IC50) in the test on pAKT in BT474 cells (Compounds 10-999) is below 100 nM. The “% of modification” value in test [1] (setting [3]) is on record as “A (percent of modification of PIK3CA protein ≥75%)”.
Consider `C=C(F)C(=O)N1CCn2nc(-c3nc(-c4ccc5c(c4)CNC5=O)c4ccsc4c3-c3c(F)cc(F)cc3OC(C)C)cc2C1` [Compound 341], for which, in the test with pAKT in BT474 cells (Compounds 10-999), the IC50 was below 100 nM. For the same compound, the “% of modification” value in test [1] (setting [3]) is listed as “B (50%<percent of modification <75%)”.
